Reference: patent US20190161807A1, “RAD51C as a Human Cancer Susceptibility Gene” (Heinrich-Heine-Universität Düsseldorf, priority 2010, published 2019)

Test system: RAD51C bi-allelic mutated cells
Test: Toxicity of PARP inhibitor / topoisomerase I inhibitor exposure in cells with reduced or absent RAD51C function (FIG. 5, FIG. 6)
Type: cell-based
Settings: RAD51C bi-allelic mutated cells vs normal cells, mono-allelic RAD51C mutated cells and RAD51C-complemented cells

SMILES: CN(C)CC(=O)Nc1ccc2[nH]c(=O)c3ccccc3c2c1 [PJ34]
- sensitivity (toxicity) of cells towards exposure to the PARP inhibitor (FIG. 5, means±SD, n=3): increased toxicities

SMILES: CC[C@@]1(O)C(=O)OCc2c1cc1n(c2=O)Cc2cc3ccccc3nc2-1 [camptothecin]
- sensitivity (toxicity) of cells towards exposure to the topoisomerase I inhibitor (FIG. 6, means±SD, n=4): increased toxicities
